Assays:
[1] = target: T1, HDAC6 (Homo sapiens, UniProt Q9UBN7); assay: HDAC inhibition, electrophoretic mobility shift assay; type: biochemical; conditions: EMSA, n = 2
T1 sequence (Q9UBN7 1-1215): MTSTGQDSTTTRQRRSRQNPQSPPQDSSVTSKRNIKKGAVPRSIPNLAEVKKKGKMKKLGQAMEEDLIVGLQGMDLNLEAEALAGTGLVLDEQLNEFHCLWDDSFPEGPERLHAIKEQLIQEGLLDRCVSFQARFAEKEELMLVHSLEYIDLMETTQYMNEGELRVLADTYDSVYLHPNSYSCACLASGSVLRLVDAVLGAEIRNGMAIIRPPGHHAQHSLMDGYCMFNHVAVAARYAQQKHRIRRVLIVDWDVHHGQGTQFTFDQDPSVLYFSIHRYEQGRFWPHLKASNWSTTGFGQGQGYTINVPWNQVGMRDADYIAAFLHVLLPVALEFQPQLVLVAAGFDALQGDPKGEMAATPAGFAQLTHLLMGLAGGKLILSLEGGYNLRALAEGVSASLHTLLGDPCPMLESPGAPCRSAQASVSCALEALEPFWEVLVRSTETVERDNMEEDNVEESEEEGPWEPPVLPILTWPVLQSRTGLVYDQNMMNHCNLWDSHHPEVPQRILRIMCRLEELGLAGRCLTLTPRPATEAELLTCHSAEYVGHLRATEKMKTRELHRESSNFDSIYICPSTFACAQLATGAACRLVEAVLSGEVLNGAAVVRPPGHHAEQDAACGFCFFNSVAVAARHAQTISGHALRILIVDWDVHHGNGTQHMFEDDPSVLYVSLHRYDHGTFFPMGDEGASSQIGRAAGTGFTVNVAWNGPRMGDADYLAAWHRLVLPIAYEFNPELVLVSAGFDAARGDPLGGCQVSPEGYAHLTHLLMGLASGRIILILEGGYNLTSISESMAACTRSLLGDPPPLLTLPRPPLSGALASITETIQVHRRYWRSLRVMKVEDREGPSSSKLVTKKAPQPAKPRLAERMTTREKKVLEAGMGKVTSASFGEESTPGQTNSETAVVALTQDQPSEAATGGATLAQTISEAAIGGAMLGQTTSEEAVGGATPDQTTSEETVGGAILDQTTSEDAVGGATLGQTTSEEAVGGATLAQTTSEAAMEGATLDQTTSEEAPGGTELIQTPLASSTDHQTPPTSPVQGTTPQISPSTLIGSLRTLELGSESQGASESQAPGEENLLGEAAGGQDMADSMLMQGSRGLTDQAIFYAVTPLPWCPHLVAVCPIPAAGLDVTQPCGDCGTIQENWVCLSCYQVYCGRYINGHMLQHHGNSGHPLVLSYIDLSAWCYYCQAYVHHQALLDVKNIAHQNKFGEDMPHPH

[2] = Caco-2 permeability assay; type: in vitro ADME; conditions: human
[3] = test system: D458 recurrent MDB cells; assay: Cytotoxicity assay in medulloblastoma cells; type: cell-based, human
[4] = target: T2, HDAC10 (Homo sapiens, UniProt Q969S8); assay: HDAC inhibition, EMSA at fixed concentration; type: biochemical
T2 sequence (Q969S8 1-669): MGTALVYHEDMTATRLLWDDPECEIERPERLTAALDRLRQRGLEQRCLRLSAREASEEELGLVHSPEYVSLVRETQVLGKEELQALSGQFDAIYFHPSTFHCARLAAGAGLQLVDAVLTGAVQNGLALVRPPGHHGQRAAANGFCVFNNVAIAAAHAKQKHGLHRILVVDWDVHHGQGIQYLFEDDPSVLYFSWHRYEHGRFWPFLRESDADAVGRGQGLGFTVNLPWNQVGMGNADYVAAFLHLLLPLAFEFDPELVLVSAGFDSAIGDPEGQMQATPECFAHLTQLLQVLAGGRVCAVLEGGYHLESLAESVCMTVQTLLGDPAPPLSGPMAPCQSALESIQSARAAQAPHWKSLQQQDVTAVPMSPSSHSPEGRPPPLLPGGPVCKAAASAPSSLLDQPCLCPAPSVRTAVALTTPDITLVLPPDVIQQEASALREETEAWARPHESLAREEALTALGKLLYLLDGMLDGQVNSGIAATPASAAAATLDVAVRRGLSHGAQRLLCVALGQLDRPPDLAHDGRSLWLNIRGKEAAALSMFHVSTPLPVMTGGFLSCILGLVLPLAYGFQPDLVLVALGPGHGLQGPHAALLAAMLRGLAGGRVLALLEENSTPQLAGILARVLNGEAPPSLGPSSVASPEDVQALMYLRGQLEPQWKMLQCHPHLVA

[5] = test system: equivalent immunodeficient mice; assay: Orthotopic tumor model in immunodeficient mice, survival
[6] = test system: chronic myelogenous leukemia K562 cells; assay: Cytotoxicity assay; type: cell-based, human
[7] = test system: MV4–11 AML cells; assay: Cytotoxicity assay; type: cell-based; conditions: Homo sapiens, MV4-11, read-out: IC50 (cytotoxicity)
[8] = Glutathione stability assay using 19F NMR; type: physicochemical; conditions: 100-fold excess glutathione, after 16 h
[9] = Serum concentration after 5 days daily dosing in NSG mice; type: in vivo, mouse; conditions: for concentration at 5 h: NSG, mouse, serum, intraperitoneal
[10] = target: T3, HDAC11 (Homo sapiens, UniProt Q96DB2); assay: HDAC inhibition, electrophoretic mobility shift assay; type: biochemical; conditions: EMSA, n = 2
T3 sequence (Q96DB2 1-347): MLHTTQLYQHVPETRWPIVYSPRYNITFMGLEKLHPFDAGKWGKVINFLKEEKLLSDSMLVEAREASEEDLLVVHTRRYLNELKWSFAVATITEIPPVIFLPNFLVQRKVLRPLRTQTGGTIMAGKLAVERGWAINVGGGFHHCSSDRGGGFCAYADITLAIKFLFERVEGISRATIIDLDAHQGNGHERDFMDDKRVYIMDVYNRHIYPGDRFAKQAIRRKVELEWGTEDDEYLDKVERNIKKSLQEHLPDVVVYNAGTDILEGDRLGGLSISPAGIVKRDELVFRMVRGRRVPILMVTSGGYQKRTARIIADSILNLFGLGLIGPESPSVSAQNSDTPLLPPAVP

[11] = test system: brain tumor stem cell (BTSC) glioblastoma lines; assay: Cytotoxicity assay in GBM BTSCs; type: cell-based, human; conditions: multiple BTSC glioblastoma lines
[12] = Single-dose pharmacokinetics in NSG mice; type: in vivo, mouse
[13] = Mouse plasma protein binding assay; type: in vitro ADME; conditions: both, CD-1, mouse
[14] = test system: MRC-9 lung cells (noncancerous); assay: Cytotoxicity assay; type: cell-based, human
[15] = target: HDAC1 (Homo sapiens, UniProt Q13547); assay: HDAC inhibition, EMSA at fixed concentration; type: biochemical
Sequence of HDAC1 (Q13547 whole entry): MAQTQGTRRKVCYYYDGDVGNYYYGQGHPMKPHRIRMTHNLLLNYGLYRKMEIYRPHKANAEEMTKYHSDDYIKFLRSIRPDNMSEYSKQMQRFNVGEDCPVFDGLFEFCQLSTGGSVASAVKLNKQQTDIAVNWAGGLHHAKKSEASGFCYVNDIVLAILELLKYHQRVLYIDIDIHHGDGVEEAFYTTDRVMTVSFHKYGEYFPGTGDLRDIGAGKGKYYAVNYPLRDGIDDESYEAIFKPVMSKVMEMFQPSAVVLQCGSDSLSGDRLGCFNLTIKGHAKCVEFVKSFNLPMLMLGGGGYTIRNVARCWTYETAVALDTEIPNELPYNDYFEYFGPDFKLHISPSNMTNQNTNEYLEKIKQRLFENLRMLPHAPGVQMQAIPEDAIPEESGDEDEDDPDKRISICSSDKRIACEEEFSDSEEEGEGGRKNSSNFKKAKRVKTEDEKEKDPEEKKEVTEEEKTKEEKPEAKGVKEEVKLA

[16] = test system: NSG mice; assay: Toxicity study; type: in vivo
[17] = test system: D425 primary medulloblastoma (MDB) cells; assay: Cytotoxicity assay in medulloblastoma cells; type: cell-based, human
[18] = test system: PC-3 prostate cancer cells; assay: Cytotoxicity in prostate cancer cells; type: cell-based, human
[19] = target: HDAC3 (Homo sapiens, UniProt O15379); assay: HDAC inhibition, electrophoretic mobility shift assay; type: biochemical; conditions: EMSA, n = 2
Sequence of HDAC3 (O15379 whole entry): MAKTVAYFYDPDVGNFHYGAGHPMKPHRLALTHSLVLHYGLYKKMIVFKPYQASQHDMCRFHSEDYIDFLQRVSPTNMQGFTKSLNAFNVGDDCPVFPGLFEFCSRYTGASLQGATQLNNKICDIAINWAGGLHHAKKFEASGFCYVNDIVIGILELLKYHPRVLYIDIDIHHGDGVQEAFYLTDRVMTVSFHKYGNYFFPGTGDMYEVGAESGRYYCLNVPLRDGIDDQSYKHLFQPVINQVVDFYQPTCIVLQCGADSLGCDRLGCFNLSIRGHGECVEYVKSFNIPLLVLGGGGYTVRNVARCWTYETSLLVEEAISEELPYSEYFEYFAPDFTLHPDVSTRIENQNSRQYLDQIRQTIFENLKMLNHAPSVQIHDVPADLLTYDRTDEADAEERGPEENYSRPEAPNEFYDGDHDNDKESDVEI
Sequence of HDAC3 (Q9Y618 395-489 partner limits assumed): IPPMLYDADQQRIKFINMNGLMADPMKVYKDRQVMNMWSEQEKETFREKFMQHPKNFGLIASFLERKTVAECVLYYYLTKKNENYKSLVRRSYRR

[20] = Glutathione stability assay using HPLC; type: physicochemical; conditions: 100-fold excess reduced L-glutathione, HEPES buffer pH 7.4, after 25 h
[21] = test system: STAT5b (total and pY694); assay: Western blot, STAT5 signaling in MV4–11 cells; type: cell-based, human; conditions: at 10 μM
[22] = target: T4, HDAC8 (Homo sapiens, UniProt Q9BY41); assay: HDAC inhibition, electrophoretic mobility shift assay; type: biochemical
T4 sequence (Q9BY41 1-377): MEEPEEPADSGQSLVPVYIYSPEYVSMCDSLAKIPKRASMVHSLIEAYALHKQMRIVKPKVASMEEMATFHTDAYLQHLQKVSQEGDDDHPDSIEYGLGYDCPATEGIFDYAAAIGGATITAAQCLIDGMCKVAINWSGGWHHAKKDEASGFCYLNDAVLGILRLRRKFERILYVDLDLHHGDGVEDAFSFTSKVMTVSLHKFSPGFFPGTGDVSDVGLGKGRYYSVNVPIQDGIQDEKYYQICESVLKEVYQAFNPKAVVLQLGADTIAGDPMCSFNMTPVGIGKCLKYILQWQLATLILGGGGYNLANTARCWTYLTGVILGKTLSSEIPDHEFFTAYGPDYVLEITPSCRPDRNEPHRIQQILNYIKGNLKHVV

[23] = test system: STAT3 (total and pY705); assay: Western blot, STAT3 signaling in MDA-MB-231 cells; type: cell-based, human; conditions: at 10-fold of the IC50
[24] = target: HDAC4 (Homo sapiens, UniProt P56524); assay: HDAC inhibition, EMSA at fixed concentration; type: biochemical
Sequence of HDAC4 (P56524 whole entry): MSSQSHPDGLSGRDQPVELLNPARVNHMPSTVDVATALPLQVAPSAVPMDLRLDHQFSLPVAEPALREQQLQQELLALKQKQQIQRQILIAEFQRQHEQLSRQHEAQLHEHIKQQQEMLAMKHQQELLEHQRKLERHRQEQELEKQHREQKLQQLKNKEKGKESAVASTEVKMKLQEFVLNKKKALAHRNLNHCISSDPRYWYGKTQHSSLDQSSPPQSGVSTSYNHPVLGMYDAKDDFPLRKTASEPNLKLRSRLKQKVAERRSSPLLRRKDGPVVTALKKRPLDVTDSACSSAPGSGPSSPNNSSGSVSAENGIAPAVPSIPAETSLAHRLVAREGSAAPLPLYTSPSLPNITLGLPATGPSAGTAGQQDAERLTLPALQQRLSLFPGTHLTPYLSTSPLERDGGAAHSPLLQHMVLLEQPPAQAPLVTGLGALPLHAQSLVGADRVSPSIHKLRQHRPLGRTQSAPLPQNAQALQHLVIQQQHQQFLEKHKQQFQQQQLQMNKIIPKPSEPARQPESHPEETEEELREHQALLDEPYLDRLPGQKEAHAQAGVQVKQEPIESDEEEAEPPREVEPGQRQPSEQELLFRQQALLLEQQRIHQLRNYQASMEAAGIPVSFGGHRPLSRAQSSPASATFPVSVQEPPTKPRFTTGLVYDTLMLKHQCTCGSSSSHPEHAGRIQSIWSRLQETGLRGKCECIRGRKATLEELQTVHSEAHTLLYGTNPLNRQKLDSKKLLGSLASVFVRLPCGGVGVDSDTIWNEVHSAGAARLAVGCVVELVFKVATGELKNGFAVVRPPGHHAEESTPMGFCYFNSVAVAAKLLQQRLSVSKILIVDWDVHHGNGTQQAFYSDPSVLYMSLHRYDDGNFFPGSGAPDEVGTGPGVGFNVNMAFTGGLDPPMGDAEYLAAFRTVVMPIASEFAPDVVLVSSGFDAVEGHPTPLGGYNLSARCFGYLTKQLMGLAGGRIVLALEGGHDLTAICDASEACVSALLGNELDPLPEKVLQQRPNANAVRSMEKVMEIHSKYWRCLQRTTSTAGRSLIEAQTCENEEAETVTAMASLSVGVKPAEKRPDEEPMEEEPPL

[25] = test system: MOLM-13 acute myeloid leukemia (AML) cells; assay: Cytotoxicity assay; type: cell-based, human; conditions: MOLM-13 AML cells

CC(C)(C)c1ccc(CN(C(=O)CN(Cc2c(F)c(F)c(F)c(F)c2F)S(=O)(=O)c2ccc(F)cc2)c2ccc(C(=O)NO)cc2)cc1 [AES-135, 4-(N-(4-(tert-Butyl)benzyl)-2-((4-fluoro-N-((perfluorophenyl)-methyl)phenyl)sulfonamido)acetamido)-N-hydroxybenzamide]
inhibition at 10 µM ([1]; read-out: % inhibition HDAC6, at 10 μM): > 90% | Papp A→B at 5 µM [2]: 0.27 ×10⁻⁶ cm/s | efflux ratio at 5 µM [2]: 3.83 | cytotoxic potency [3]: nM activity | inhibition at 10 µM ([4]; read-out: % inhibition HDAC10, at 10 μM, n = 2): ≥ 70% | survival advantage [5]: no obvious survival advantage | sensitivity to cytotoxicity [6]: resistant | IC50 [7]: 1880 ± 890 nM | stability to glutathione (19F NMR) [8]: no displacement of fluoride was observed | increase in blood concentration from quadrupling the dose ([9]; 40 vs 10 mg/kg): ~5.7 fold | concentration at 5 h ([9]; 10 mg/kg): 323 ng/mL | concentration at 5 h ([9]; 40 mg/kg): 1830 ng/mL | inhibition at 10 µM ([10]; read-out: % inhibition HDAC11, at 10 μM): > 90% | cytotoxic potency [11]: low μM potency | duration of micromolar (μM) concentrations ([12]; IP injection): > 10 h | clearance rate ([12]; single 20 mg/kg IP, assuming bioavailability to be 100%): 0.004 L/h | recovery at 6 h ([13]; mouse plasma): 16 to 20% | fraction unbound at 6 h ([13]; plasma): 0.004 | toxicity in noncancerous cells [14]: minimal toxicity | inhibition at 10 µM ([15]; read-out: % inhibition HDAC1, at 10 μM, n = 2): ≥ 70% | toxicity assessed via weight loss ([16]; 60 mg/kg IP daily for 4–5 days, n = 6): no significant weight loss | toxicity based on percentage weight loss compared to vehicle control ([16]; 10 and 40 mg/kg IP once a day for 5 days): No visible toxicity | cytotoxic potency [17]: nM activity | cytotoxic potency [18]: low μM potency | inhibition at 10 µM ([19]; read-out: % inhibition HDAC3, at 10 μM): > 90% | stability to glutathione (HPLC) [20]: No discernible reaction was observed | effect on total STAT5b and pY694 STAT5b (Western blot) [21]: failed to suppress total STAT5b or pY694 STAT5b | IC50 [22]: 1100 nM | inhibition at 10 µM ([22]; read-out: % inhibition HDAC8, at 10 μM, EMSA, n = 2): > 90% | effect on total STAT3 and pY705 STAT3 (Western blot) [23]: neither total STAT3 nor pY705 STAT3 was significantly reduced | inhibition at 10 µM ([24]; read-out: % inhibition HDAC4, at 10 μM, n = 2): < 20% | cytotoxic potency [25]: low μM potency

CN(O)C(=O)c1ccc(N(Cc2ccc(C(C)(C)C)cc2)C(=O)CN(Cc2c(F)c(F)c(F)c(F)c2F)S(=O)(=O)c2ccc(F)cc2)cc1 [compound 60, 4-(N-(4-(tert-Butyl)benzyl)-2-((4-fluoro-N-((perfluorophenyl)-methyl)phenyl)sulfonamido)acetamido)-N-hydroxy-N-methylbenzamide]
% inhibition HDAC6 ([1]; at 10 μM): 12% | % inhibition HDAC10 ([4]; at 10 μM, n = 2): 0% | % inhibition HDAC11 ([10]; at 10 μM): 64% | % inhibition HDAC1 ([15]; at 10 μM, n = 2): 0% | % inhibition HDAC3 ([19]; at 10 μM): 0% | % inhibition HDAC8 ([22]; at 10 μM, EMSA, n = 2): 0% | % inhibition HDAC4 ([24]; at 10 μM, n = 2): 0%

From publication PMC7190078 (Journal of medicinal chemistry, 2019)
